In patent publication US20100204114A1, “USE OF A GALANIN PEPTIDE AS A THERAPEUTIC AGENT” (priority 2007, published 2010):
Where no end group is shown, it is not given here.

Legend:
[1] = test system: hepatitis B virus (HBV) ayw strain in HepG2-2.2.15 cells; assay: HBV experimental assay system, secreted HBV DNA by TaqMan PCR; format: cell-based; conditions: 10 micrograms per ml, six days
From the text: HepG2-2.2.15 is a stable cell line containing the hepatitis B virus (HBV) ayw strain genome (ATCC Cat. No. CRL-11997). Antiviral compounds blocking any late step of viral replication such as transcription, translation, pregenome encapsidation, reverse transcription, particle assembly and release can be identified and characterized using this cell line. In this assay, an active compound will reduce the production of secreted HBV from cells, measured by utilizing real time quantitative PCR (TaqMan) assay to directly and accurately measure HBV DNA copies.
HepG2-2.2.15 cells were plated in 96-well microtiter plates. After 16-24 hours the confluent monolayer of HepG2-2.2.15 cells was washed and the medium was replaced with complete medium containing test peptides—10 micrograms per ml—in duplicate. […] Six days following the initial administration of the peptides, the cell culture supernatants was collected, treated with pronase and DNAse and then used in a real-time quantitative TaqMan PCR assay. The PCR-amplified HBV DNA was detected in real-time by monitoring increases in fluorescence signals that result from the exonucleolytic degradation of a quenched fluorescence probe molecule that hybridizes to the amplified HBV DNA. […] Antiviral activity was calculated from the reduction in HBV DNA levels (% virus control). […]

[2] = test system: spleen cells of Ovalbumin-immunized Balb/c mice; assay: Th1/Th2 cytokine profiling assay (Ovalbumin-restimulated spleen cells, CBA kit); format: cell-based, mouse; conditions: 10 micrograms per ml; Ovalbumin restimulation; 72 hours
From the text: The Balb/c mice (originated in 1923, it is a popular strain and is used in many different research disciplines. […] On day 50, spleens of the mice were harvested (3 weeks after last boost with Ovalbumin). […] This kit can be used to measure Interleukin-2 (IL-2), Interleukin-4 (IL-4), Interleukin-5 (IL-5), Interferon-γ (IFN-γ), and Tumor Necrosis Factor-α (TNF-α) protein levels in a single sample. The kit performance has been optimized for analysis of physiologically relevant concentrations ([…] levels) of specific cytokine proteins in tissue culture supernatants and serum samples.

[3] = test system: Primary Human endothelial cells (HUVEC); assay: Endothelial cell migration assay; format: cell-based; conditions: 10 micrograms per ml, 22 hours
HUVEC = assay: Endothelial tube formation assay; format: cell-based, human; conditions: 10 micrograms per ml, 20 hours
HCMV strain AD169 = assay: HCMV plaque formation assay in MRC-5 cells; conditions: for inhibition of HCMV plaque formation as compared to the virus control: 10 micrograms per ml, 7-10 days
HIV-1IIIB = assay: HIV-1 antiviral assay in CEM-SS cells (MTS readout); format: cell-based

Compound | inhibition of HBV replication as compared to the virus control infection [1] | IFNγ spleen cells; TH1 response (% of control) [2] | IL-2 spleen cells (% of control) [2] | IL-4 spleen cells; TH2 response (% of control) [2] | IL-5 spleen cells; TH2 response (% of control) [2] | TNF-a spleen cells; TH1 response (% of control) [2] | inhibition of the migration of human endothelial cells [3] | inhibition of the tube formation of endothelial cells (HUVEC) | inhibition of HCMV plaque formation as compared to the virus control (HCMV strain AD169) | antiviral activity of positive control compounds (HIV-1) (HIV-1IIIB) | antiviral activity of positive control compound (HCMV) (HCMV strain AD169; positive control)
Ile-Tyr-Leu-Gly-Gly-Pro-Phe-Ser-Pro-Asn-Val-Leu-OH (IYLGGPFSPNVL-OH) [peptide 2] | 34.1% | 102.8 % of control | 150.7 % of control | 182.0 % of control | 73.5 % of control | 114.1 % of control | did not inhibit | 29% | did not inhibit |  | 
Cc1cn([C@H]2C[C@H](N=[N+]=[N-])[C@@H](CO)O2)c(=O)[nH]c1=O [AZT] |  |  |  |  |  |  |  |  |  | expected levels of antiviral activity | 
Gly-Trp-Thr-Leu-Asn-Ser-Ala-Gly-Tyr-Leu-Leu-Gly-Pro-His-Ala-Val-Gly-Asn-His-Arg-Ser-Phe-Ser-Asp-Lys-Asn-Gly-Leu-Thr-Ser-OH [peptide 1] | no effect | 144.1 % of control | 149.6 % of control | 115.3 % of control | 78.8 % of control | 118.8 % of control | 29% | 11% | did not inhibit |  | 
Nc1nc(O)c2ncn(COC(CO)CO)c2n1 [Ganciclovir, reference compound] |  |  |  |  |  |  |  |  |  |  | expected levels of antiviral activity
CC(C)(C)NC(=O)[C@@H]1CN(Cc2cccnc2)CCN1C[C@@H](O)C[C@@H](Cc1ccccc1)C(=O)N[C@H]1c2ccccc2C[C@H]1O [indinavir] |  |  |  |  |  |  |  |  |  | expected levels of antiviral activity | 
